# Measured values taken from ChEMBL document CHEMBL1143467, “Synthesis of potent and selective serotonin 5-HT1B receptor ligands” (Bioorg Med Chem Lett, 2005).
# Legend:
# [1] = molecular target: T1, Muscarinic acetylcholine receptor M5 (Homo sapiens, UniProt P08912); assay: Affinity towards cloned Muscarinic acetylcholine receptor M5
# T1 sequence (P08912 whole entry): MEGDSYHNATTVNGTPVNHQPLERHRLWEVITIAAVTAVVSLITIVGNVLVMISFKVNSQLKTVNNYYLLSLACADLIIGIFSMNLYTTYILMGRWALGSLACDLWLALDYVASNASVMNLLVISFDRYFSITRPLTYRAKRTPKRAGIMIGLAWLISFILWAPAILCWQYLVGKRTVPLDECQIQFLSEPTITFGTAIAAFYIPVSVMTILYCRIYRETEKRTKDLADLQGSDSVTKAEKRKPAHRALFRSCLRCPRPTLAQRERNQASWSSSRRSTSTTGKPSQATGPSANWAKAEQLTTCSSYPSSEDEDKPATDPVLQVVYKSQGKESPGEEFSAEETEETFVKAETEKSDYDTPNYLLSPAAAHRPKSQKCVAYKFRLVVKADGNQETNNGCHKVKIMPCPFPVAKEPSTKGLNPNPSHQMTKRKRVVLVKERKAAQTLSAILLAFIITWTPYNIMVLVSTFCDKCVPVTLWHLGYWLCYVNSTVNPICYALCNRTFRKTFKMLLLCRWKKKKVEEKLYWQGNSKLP
# [2] = molecular target: Kappa-type opioid receptor (Homo sapiens, UniProt P41145); assay: Affinity towards cloned Opioid receptor kappa 1
# [3] = molecular target: D(3) dopamine receptor (Homo sapiens, UniProt P35462); assay: Affinity towards cloned Dopamine receptor D3
# [4] = molecular target: 5-hydroxytryptamine receptor 7 (Homo sapiens, UniProt P34969); assay: In vitro binding affinity towards cloned human 5-HT7 receptor using [3H]5-carboximidotryptamine as radioligand
# [5] = molecular target: Mu-type opioid receptor (Homo sapiens, UniProt P35372); assay: Affinity towards cloned Opioid receptor mu 1
# [6] = molecular target: T2, 5-hydroxytryptamine receptor 2C (Homo sapiens, UniProt P28335); assay: In vitro binding affinity towards cloned human 5-HT2C receptor using [3H]5-carboximidotryptamine as radioligand
# T2 sequence (P28335 whole entry): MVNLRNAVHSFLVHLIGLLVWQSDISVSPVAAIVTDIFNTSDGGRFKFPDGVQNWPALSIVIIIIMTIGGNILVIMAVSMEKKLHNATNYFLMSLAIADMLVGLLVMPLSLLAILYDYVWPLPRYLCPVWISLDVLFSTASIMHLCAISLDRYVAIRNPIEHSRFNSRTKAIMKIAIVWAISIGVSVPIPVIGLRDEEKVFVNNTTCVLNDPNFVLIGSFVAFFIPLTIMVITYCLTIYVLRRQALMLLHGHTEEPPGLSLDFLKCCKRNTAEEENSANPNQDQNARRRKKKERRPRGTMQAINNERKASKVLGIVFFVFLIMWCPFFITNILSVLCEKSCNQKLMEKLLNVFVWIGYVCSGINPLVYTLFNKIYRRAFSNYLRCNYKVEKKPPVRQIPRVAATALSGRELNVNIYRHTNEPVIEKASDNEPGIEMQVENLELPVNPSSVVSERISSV
# [7] = molecular target: D(1A) dopamine receptor (Homo sapiens, UniProt P21728); assay: Affinity towards cloned Dopamine receptor D1
# [8] = Affinity towards cloned Nicotinic acetylcholine receptor
# [9] = molecular target: T3, Muscarinic acetylcholine receptor M1 (Homo sapiens, UniProt P11229); assay: Affinity towards cloned Muscarinic acetylcholine receptor M1
# T3 sequence (P11229 whole entry): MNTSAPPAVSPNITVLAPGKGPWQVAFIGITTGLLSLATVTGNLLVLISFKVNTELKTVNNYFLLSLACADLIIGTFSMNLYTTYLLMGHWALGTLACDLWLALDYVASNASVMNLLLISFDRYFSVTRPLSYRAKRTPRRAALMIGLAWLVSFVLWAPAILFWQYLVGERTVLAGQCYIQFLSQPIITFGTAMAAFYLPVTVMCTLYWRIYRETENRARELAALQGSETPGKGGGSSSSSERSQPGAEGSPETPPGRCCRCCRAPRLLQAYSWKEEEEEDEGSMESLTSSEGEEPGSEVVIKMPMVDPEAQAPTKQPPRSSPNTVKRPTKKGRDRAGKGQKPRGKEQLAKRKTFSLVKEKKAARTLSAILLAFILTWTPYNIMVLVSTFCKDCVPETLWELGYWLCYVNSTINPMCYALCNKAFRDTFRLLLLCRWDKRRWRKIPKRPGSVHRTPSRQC
# [10] = molecular target: 5-hydroxytryptamine receptor 6 (Homo sapiens, UniProt P50406); assay: In vitro binding affinity towards cloned human 5-HT6 receptor using [3H]5-carboximidotryptamine as radioligand
# [11] = molecular target: T4, Muscarinic acetylcholine receptor M4 (Homo sapiens, UniProt P08173); assay: Affinity towards cloned Muscarinic acetylcholine receptor M4
# T4 sequence (P08173 whole entry): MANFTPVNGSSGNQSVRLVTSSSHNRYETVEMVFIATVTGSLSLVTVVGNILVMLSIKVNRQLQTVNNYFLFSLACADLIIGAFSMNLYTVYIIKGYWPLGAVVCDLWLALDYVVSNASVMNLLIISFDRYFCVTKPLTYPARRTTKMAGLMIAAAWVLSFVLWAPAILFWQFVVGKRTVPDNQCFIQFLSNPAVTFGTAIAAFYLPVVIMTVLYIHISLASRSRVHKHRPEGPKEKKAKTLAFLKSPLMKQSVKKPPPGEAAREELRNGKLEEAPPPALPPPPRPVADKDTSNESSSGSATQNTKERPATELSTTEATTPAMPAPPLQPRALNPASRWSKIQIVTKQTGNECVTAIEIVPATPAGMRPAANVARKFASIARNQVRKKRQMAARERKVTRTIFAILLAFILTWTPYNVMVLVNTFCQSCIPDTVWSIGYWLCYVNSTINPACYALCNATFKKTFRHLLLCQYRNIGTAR
# [12] = molecular target: 5-hydroxytryptamine receptor 2A (Homo sapiens, UniProt P28223); assay: In vitro binding affinity towards cloned human 5-HT2A receptor using [3H]5-carboximidotryptamine as radioligand
# [13] = molecular target: D(1B) dopamine receptor (Homo sapiens, UniProt P21918); assay: Affinity towards cloned Dopamine receptor D5
# [14] = molecular target: Histamine H1 receptor (Homo sapiens, UniProt P35367); assay: Affinity towards cloned Histamine H1 receptor
# [15] = molecular target: D(2) dopamine receptor (Homo sapiens, UniProt P14416); assay: Affinity towards cloned Dopamine receptor D2
# [16] = molecular target: Delta-type opioid receptor (Homo sapiens, UniProt P41143); assay: Affinity towards cloned Opioid receptor delta 1
# [17] = molecular target: 5-hydroxytryptamine receptor 1B (Homo sapiens, UniProt P28222); assay: In vitro binding affinity towards cloned human 5-HT1B receptor using [3H]5-carboximidotryptamine as radioligand
# [18] = molecular target: T5, D(4) dopamine receptor (Homo sapiens, UniProt P21917); assay: Affinity towards cloned Dopamine receptor D4
# T5 sequence (P21917 whole entry): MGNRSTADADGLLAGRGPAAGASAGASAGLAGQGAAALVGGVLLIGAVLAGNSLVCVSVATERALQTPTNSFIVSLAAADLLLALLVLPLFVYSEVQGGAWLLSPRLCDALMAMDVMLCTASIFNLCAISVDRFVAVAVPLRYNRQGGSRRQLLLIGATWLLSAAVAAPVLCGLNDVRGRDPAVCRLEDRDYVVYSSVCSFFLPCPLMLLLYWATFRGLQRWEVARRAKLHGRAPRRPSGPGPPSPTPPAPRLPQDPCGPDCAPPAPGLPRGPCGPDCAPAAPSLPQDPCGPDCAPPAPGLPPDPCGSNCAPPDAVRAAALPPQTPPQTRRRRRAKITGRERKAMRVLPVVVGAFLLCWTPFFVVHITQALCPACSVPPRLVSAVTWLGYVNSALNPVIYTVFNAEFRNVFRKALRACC
# [19] = molecular target: Muscarinic acetylcholine receptor M3 (Homo sapiens, UniProt P20309); assay: Affinity towards cloned Muscarinic acetylcholine receptor M3
# [20] = molecular target: 5-hydroxytryptamine receptor 1D (Homo sapiens, UniProt P28221); assay: In vitro binding affinity towards cloned human 5-HT1D receptor using [3H]5-carboximidotryptamine as radioligand
# [21] = molecular target: T6, Muscarinic acetylcholine receptor M2 (Homo sapiens, UniProt P08172); assay: Affinity towards cloned Muscarinic acetylcholine receptor M2
# T6 sequence (P08172 whole entry): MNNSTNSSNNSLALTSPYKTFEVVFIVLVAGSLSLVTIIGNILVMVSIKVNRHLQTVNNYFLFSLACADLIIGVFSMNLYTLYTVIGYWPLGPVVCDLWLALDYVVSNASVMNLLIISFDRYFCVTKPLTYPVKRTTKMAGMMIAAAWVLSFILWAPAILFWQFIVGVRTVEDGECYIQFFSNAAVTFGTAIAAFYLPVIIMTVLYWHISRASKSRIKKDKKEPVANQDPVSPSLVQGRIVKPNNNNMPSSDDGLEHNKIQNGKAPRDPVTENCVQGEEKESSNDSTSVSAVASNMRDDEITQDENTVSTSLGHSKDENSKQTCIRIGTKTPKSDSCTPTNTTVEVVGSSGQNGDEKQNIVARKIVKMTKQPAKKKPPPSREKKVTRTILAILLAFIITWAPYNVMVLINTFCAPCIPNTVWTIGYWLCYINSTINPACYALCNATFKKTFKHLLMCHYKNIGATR
# Chain of D(1A) dopamine receptor (P21728 whole entry): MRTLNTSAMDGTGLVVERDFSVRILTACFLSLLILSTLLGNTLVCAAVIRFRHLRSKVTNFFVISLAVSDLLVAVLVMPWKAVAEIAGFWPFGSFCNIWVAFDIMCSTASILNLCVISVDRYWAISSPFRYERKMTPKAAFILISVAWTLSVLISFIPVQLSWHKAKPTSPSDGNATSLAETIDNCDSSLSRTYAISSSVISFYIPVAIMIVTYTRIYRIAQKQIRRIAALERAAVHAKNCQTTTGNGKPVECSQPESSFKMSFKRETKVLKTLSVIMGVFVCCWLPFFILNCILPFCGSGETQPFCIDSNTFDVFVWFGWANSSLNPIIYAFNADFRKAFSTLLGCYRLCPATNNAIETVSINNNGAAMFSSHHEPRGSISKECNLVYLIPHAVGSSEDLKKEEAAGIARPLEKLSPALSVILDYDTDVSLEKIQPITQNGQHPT
# Chain of D(2) dopamine receptor (P14416 whole entry): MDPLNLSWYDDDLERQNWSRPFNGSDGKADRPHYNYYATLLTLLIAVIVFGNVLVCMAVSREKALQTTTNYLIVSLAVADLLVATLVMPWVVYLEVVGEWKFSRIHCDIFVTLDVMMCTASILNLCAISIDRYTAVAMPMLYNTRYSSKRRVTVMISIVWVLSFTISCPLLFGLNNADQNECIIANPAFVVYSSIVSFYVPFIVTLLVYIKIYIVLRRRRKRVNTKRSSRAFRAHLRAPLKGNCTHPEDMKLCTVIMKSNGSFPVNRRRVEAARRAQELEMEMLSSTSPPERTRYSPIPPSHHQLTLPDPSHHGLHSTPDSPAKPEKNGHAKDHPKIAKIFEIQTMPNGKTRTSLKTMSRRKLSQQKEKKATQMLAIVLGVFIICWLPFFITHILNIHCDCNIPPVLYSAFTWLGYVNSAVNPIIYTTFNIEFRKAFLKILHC
# Chain of 5-hydroxytryptamine receptor 1D (P28221 whole entry): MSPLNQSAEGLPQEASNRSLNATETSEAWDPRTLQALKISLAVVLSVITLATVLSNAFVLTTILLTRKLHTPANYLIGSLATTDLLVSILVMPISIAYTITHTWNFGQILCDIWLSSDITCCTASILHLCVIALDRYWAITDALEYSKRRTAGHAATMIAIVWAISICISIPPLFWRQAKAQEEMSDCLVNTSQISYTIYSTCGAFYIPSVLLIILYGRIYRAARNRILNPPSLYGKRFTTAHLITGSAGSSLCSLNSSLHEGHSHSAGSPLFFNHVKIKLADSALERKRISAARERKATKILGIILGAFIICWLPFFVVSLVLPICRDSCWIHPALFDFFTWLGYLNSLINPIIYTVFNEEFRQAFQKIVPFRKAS
# Chain of 5-hydroxytryptamine receptor 1B (P28222 whole entry): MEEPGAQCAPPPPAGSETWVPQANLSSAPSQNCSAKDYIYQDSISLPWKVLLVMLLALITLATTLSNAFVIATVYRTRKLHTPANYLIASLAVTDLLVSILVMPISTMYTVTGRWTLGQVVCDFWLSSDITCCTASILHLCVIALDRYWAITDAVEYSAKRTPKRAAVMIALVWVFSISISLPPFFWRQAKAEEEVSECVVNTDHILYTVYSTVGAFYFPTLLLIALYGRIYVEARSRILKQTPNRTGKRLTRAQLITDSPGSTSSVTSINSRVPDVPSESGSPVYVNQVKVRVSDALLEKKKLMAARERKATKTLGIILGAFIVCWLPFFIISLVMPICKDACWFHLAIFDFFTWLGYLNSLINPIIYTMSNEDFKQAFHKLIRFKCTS
# Chain of Mu-type opioid receptor (P35372 whole entry): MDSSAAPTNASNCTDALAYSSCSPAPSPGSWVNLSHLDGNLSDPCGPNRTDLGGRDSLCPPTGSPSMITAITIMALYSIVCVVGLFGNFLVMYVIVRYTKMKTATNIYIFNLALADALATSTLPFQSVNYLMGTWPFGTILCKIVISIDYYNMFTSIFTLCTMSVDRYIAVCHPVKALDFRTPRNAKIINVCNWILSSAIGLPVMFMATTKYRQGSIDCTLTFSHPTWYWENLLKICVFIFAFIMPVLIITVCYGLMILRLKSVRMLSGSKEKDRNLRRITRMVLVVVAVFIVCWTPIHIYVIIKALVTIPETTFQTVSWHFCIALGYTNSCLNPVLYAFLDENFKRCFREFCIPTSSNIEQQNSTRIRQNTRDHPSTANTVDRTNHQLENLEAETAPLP
# Chain of 5-hydroxytryptamine receptor 6 (P50406 whole entry): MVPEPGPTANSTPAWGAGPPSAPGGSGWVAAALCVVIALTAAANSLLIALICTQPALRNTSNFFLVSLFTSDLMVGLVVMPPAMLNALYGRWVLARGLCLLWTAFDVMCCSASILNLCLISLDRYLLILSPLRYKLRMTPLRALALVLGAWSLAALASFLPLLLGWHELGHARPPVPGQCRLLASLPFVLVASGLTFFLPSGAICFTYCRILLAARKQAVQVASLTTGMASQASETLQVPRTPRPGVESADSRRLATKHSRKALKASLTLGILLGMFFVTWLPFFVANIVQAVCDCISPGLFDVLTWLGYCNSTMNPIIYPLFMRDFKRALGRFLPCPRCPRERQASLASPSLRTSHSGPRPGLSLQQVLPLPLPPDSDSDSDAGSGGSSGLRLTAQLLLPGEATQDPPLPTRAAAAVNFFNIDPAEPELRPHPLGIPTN
# Chain of Delta-type opioid receptor (P41143 whole entry): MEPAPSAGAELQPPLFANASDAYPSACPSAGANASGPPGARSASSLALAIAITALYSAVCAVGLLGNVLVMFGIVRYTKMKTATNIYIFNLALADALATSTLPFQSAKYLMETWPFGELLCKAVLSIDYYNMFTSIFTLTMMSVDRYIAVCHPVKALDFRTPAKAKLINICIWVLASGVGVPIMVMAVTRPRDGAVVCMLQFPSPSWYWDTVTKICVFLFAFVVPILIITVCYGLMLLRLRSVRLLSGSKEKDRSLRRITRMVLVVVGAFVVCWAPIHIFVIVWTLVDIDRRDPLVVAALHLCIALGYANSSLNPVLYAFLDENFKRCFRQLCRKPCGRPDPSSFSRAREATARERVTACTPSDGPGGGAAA
# Chain of Muscarinic acetylcholine receptor M3 (P20309 whole entry): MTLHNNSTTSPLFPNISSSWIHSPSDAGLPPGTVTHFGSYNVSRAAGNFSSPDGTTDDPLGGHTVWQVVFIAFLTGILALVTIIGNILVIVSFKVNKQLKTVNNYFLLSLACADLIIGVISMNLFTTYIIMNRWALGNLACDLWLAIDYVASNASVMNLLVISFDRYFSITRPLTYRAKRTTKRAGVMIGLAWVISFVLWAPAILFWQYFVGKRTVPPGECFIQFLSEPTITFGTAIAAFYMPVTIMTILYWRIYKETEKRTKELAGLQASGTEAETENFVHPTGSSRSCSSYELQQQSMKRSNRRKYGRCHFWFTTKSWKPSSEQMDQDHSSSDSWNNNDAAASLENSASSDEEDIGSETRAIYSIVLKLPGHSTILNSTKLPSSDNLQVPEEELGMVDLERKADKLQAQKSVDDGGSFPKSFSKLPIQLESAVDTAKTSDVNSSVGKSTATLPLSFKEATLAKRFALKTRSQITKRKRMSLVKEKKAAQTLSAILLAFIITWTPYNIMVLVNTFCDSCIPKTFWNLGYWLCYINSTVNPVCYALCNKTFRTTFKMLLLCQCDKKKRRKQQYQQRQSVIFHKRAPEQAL
# Chain of 5-hydroxytryptamine receptor 7 (P34969 whole entry): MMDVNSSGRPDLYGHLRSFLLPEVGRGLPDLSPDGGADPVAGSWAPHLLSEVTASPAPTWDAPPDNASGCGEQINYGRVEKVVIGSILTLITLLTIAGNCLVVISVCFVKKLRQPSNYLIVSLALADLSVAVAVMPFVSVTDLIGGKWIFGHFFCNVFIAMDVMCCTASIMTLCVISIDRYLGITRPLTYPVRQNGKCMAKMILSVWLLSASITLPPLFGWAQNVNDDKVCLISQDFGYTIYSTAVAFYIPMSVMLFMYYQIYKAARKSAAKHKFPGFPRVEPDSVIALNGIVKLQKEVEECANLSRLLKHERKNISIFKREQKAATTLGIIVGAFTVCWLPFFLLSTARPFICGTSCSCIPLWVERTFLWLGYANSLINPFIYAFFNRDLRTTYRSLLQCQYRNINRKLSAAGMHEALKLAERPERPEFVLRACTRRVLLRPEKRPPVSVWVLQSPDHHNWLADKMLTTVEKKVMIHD
# Chain of D(1B) dopamine receptor (P21918 whole entry): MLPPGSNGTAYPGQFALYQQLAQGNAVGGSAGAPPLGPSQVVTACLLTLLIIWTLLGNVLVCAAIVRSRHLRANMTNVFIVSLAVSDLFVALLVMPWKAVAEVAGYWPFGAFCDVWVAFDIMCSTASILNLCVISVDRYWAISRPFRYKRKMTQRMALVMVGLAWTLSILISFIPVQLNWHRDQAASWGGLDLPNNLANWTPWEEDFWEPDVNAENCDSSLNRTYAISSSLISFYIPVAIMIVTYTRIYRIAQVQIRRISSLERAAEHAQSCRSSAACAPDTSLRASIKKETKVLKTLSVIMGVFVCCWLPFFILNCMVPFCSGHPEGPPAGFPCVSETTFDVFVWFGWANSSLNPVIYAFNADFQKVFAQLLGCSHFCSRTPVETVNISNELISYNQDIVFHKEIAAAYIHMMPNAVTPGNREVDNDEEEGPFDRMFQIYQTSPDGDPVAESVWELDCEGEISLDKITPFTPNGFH
# Chain of D(3) dopamine receptor (P35462 whole entry): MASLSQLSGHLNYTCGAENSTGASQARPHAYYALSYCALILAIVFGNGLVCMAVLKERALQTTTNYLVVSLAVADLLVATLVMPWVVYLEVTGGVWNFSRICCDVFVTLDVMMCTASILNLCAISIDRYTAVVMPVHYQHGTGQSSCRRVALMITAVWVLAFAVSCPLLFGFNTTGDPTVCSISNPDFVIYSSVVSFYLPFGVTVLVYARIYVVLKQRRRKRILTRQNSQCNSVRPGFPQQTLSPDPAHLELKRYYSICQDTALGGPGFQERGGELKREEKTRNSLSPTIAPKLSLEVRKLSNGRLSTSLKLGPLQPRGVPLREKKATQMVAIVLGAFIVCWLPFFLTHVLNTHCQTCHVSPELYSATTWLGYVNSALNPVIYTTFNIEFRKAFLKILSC
smiles,measurement,setting,value
COc1ccc(NC(=O)N2CCN(c3ccccc3OC)CC2)cc1N1CCN(C)CC1,Ki,[1],> 10 µM
same,Ki,[2],> 10 µM
same,Ki,[3],> 10 µM
same,Ki,[4],1.41 µM
same,Ki,[5],> 10 µM
same,Ki,[6],1.94 µM
same,Ki,[7],> 10 µM
same,Ki,[8],> 10 µM
same,Ki,[9],> 10 µM
same,Ki,[10],2.41 µM
same,Ki,[11],> 10 µM
same,Ki,[12],6.74 µM
same,Ki,[13],> 10 µM
same,Ki,[14],> 10 µM
same,Ki,[15],> 10 µM
same,Ki,[16],> 10 µM
same,Ki,[17],0.0124 µM
same,Ki,[18],> 10 µM
same,Ki,[19],> 10 µM
same,Ki,[20],0.106 µM
same,Ki,[21],> 10 µM
